In US9884851B2, “Heterocycle-bisamide inhibitors of scavenger receptor BI” (THE BROAD INSTITUTE, INC., priority 2012, dated 2018):
“Also recorded” adds a separate entry of the source.

Columns and labels:
hepatitis C virus (HCV) = test: In vitro testing with Huh-7.5 cells infected with HCV; format: cell-based; conditions: for inhibition of HCV replication (in words): Huh-7.5 cells infected with Jcl 378-1 TagRFP (MOI=0.1), 3 dpi
Experimental: A series of tests were conducted using the compound of Formula II (CID53393835/ML279), other known inhibitors of SR-BI and controls with cells infected with hepatitis C virus (HCV). The cells (Huh-7.5 cells infected with Jcl 378-1 TagRFP (MOI=0.1) 3 dpi) were treated with the following SR-BI compounds and controls:
Three different infection protocols were followed: (1) no wash—virus inoculum was removed 4hpi and fresh medium containing compounds added without washing cells; (2) 5× wash—virus inoculum was removed 4hpi, cells were washed 5× with PBS and fresh medium containing compounds added; and (3) no wash Opt—infection were performed in serum-free OptiMem; virus inoculum was removed 4hpi and fresh medium containing compounds added without washing cells. FIG. 90 provides a comparison of the three different infection set-ups. FIG. 91 provides a comparison of two independent experiments.

ldlA[mSR-BI] cells = test: Cell cytotoxicity assay (CellTiter-Glo); conditions: ldlA[mSR-BI] cells
Experimental: It is possible that a compound will cause cells to decrease HDL-mediated DiI uptake due to nonspecific consequences of cellular toxicity, representing a second class of false positive hits. The cells were treated with compounds for 3 hours or 24 hours, and then cell viability was measured using the CellTiter-Glo Assay (Promega), a luciferase-based reagent that measures cellular ATP levels. The compounds were tested at different concentrations to determine IC50 values. […] Data were normalized against DMSO and the positive control (1 μM BLT-1) in Genedata Assay Analyzer.
All available dry powder samples of the remaining, non-quenching compounds were procured from commercial sources and purities were determined. The compounds obtained were then retested in the primary assay and in cytotoxicity assays. We wanted to rule out any compounds that were cytotoxic, especially in the 3-hour time span of the primary DiI-HDL uptake assay. Therefore, compounds were tested in ldl[mSR-BI] cells for cytotoxicity at 3 hours and 24 hours using the CellTiter-Glo assay (Promega) that measures cellular ATP as a marker of cell viability. […] Compounds were screened for inhibition of endocytosis using labeled transferrin, which is known to bind the transferrin receptor, enter cells by clathrin-mediated endocytosis, and move to endosomes before being recycled to the cell surface.

[1] = target: T1, murine SR-BI with the C384S mutation (Mus musculus, UniProt Q61009, C384S); test: Mutant SR-BI cholesterol efflux assay; format: cell-based; conditions: Cys384 converted to serine
T1 construct: expressed in transfected cells; host or cells: CHO cell line lacking LDL receptors, overexpressing C384S SR-BI
T1 sequence (Q61009 1-509 C384S): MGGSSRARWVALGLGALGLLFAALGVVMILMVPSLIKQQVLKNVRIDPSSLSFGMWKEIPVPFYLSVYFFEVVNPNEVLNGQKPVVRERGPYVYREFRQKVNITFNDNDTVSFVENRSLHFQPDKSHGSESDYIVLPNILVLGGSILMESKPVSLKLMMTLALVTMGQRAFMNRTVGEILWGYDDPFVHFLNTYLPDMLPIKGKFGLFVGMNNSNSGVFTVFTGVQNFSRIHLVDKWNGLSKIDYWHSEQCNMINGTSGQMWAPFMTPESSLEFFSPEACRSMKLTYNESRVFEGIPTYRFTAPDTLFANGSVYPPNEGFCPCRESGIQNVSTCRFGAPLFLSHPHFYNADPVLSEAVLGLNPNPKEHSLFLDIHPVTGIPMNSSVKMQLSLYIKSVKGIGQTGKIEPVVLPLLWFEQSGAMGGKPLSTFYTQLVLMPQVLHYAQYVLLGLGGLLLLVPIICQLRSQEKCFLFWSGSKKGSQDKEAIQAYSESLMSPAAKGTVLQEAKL
Experimental: Mutant SR-BI Cholesterol Efflux Assay (SA 10: AID Nos. 588843, 602138)
BLT-1 is known to interact at cysteine 384 of SR-BI (16). […] This assay is used to determine if the compounds work in a similar fashion to BLT-1 and require Cys384 to alter the efflux of FC to HDL.
On Day 0, 50,000 cells expressing murine SR-BI with the C384S mutation per well were plated in 24-well plates. On the following day, the media was removed and [^3H]cholesterol in lipoprotein-deficient media was added. On Day 1, the medium was replaced with Ham's F12 medium supplemented with 10% bovine lipoprotein deficient serum, 1 μCi/ml [1,2-^3H]cholesterol (40-60 Ci/mmol). On Day 3, the cells were washed to remove serum and incubated in Ham's F12 plus 1% fatty acid-free BSA. On Day 4, the cells were washed and pretreated with compounds for 1 hour. Subsequently, the cells were incubated for an additional 2 hours with the same concentrations of small molecules and with unlabeled HDL (final HDL concentration of 100 μg protein/ml). […] The amount of [^3H]cholesterol in the medium and within cells was determined using liquid scintillation counting. Total cellular [^3H]cholesterol was calculated as the sum of the radioactivity in the efflux medium plus the radioactivity in the cells and was used to calculate the [^3H]cholesterol efflux (percent of total [^3H]cholesterol released into the medium).

C384S SR-BI = target: T2, C384S SR-BI (Mus musculus, UniProt Q61009, C384S); test: Radioactive HDL uptake assay (mutant SR-BI); format: cell-based, murine; conditions: Cys384 converted to serine
T2 construct: expressed in transfected cells; host or cells: CHO cell line lacking LDL receptors, overexpressing C384S SR-BI
T2 sequence (Q61009 1-509 C384S): T1 sequence (Q61009 1-509 C384S)
From the text: Radioactive HDL Uptake Assay (mutant SR-BI) (SA 9: AID No. 588837)
BLT-1 is known to interact at cysteine 384 of SR-BI (16). […] This assay is used to determine if the compounds work in a similar fashion to BLT-1 and require Cys384 to alter the binding of HDL particles and uptake of the lipid to the mutant SR-BI scavenger receptor, using an alternative means of labeling HDL particles and avoiding any type of fluorescence measurement. To measure this lipid uptake event, HDL particles are labeled with [^3H]cholesteryl ester and added to C384S SR-BI cells. Cells take up HDL lipid via the mutant SR-BI in 2 to 3 hours. After significant uptake of the HDL lipid, the radiolabel can be detected by liquid scintillation counting. The level of radioactivity correlates with the amount of HDL lipid uptake. The uptake of lipid from HDL particles can be inhibited by the compound BLT-1 or when co-treated with an excess of unlabeled HDL. The mSR-BI cells utilized in the assay are a CHO cell line lacking expression of the LDL receptors and overexpressing the mutant scavenger receptor, C384S SR-BI.

Compound	inhibition of HCV replication (in words) (hepatitis C virus (HCV); listed as 8)	inhibition of HCV replication (in words) (hepatitis C virus (HCV); listed as SRB1-8)	mean fluorescence intensity (MFI) of HCV positive cells (in words) (hepatitis C virus (HCV); dose dependence)	cytotoxicity (in words) (ldlA[mSR-BI] cells)	efflux of cholesterol in C384S mutant background (in words) [1]	uptake of HDL in C384S mutant background (in words) (C384S SR-BI)	inhibition of HCV replication (in words) (hepatitis C virus (HCV); listed as 5)	inhibition of HCV replication (in words) (hepatitis C virus (HCV); listed as SRB1-5)	inhibition of virus assembly/egress (in words) (hepatitis C virus (HCV); fluorescence intensity of HCV positive cells normalized to DMSO)
CCCCCCC1CCCC1=NNC(N)=S (stereo not drawn) [BLT-1, reference compound]	able to inhibit HCV replication	inhibited viral replication	increased mean fluorescence intensity (MFI) of HCV positive cells in a dose dependent manner	extremely toxic to cells	cannot reduce uptake of HDL or efflux of cholesterol	cannot reduce uptake of HDL or efflux of cholesterol			
C[C@H](C(=O)NC1CCCC1)N(C(=O)Cn1nnc(-c2ccc3c(c2)OCO3)n1)C1CCCCC1 [ML279, (R)-2-(2-(5-(Benzo[d][1,3]dioxol-5-yl)-2H-tetrazol-2-yl)-N-cyclohexylacetamido)-N-cyclopentylpropanamide]				not cytotoxic; also recorded: no cytotoxicity at 24 hours	can reduce uptake and efflux in the mutant background	can reduce uptake and efflux in the mutant background	able to inhibit HCV replication	inhibited viral replication	can also inhibit virus assembly/egress
